What all share (assay type): cell-based
One assay concerns the target T1, hGIPR (Homo sapiens, UniProt P48546).
T1 construct: expressed in transfected cells
T1 sequence (P48546 22-466): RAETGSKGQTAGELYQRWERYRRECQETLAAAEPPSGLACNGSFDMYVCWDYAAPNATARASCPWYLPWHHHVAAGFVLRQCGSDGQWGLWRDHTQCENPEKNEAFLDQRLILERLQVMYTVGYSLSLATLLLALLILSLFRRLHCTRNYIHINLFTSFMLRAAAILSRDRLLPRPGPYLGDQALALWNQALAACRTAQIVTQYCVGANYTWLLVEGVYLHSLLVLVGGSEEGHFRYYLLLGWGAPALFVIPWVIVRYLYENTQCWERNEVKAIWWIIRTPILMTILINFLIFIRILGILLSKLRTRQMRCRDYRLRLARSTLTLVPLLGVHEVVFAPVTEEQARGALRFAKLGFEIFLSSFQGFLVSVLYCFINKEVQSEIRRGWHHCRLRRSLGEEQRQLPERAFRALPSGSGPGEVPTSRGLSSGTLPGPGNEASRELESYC
In words: Functional cAMP formation (HTRF) in HEK-293 clonal cells expressing hGIPR, 0.1% bovine casein, without or with 1.0% human serum albumin. The note with it: for Emax: read-out: hGIPR Emax, % ± SEM; for EC50: cAMP. Put shortly:
(§1)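 Cells were stimulated with peptide for 30 min at 37° C, then lysed in buffer carrying cAMP-d2 and anti-cAMP Eu3+-cryptate for a competitive HTRF read after at least 60 min at room temperature. The 665/620 nm ratio was converted to nM cAMP against a standard curve.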
In general terms: Cyclic AMP is a second messenger, typically raised through Gs and lowered through Gi signalling.

A further assay addresses T2, hGCGR (Homo sapiens, UniProt P47871).
T2 construct: expressed in transfected cells
As to the kind of experiment: Functional cAMP formation (HTRF) in HEK-293 clonal cells expressing hGCGR, 0.1% bovine casein, without or with 1.0% human serum albumin. Put shortly:
as §1

Another assay addresses hGLP-1R (Homo sapiens, UniProt P43220). In words: Functional cAMP formation (HTRF) in HEK-293 clonal cells expressing hGLP-1R, 0.1% bovine casein, without or with 1.0% human serum albumin. Further details: expressed in transfected cells. Particulars: for EC50: cAMP. In outline:
as §1

Where [1] appears, read: HEK293, cAMP, 37° C., 0.1% bovine casein and 1.0% human serum albumin, percent of maximal response to GIP(1-42)NH2.
The mark [2] stands for this setting: 37° C., 0.1% bovine casein and 1.0% human serum albumin, geometric mean (SEM, n), read-out: hGIPR EC50, nM (SEM, n).
[3] abbreviates: cAMP, 37° C., 0.1% bovine casein (no human serum albumin), geometric mean, read-out: hGCGR EC50, nM (SEM, n).
The mark [4] stands for this setting: cAMP, 37° C., 0.1% bovine casein and 1.0% human serum albumin, geometric mean (SEM, n), read-out: hGCGR EC50, nM (SEM, n).
Where [5] appears, read: HEK293, cAMP, 37° C., 0.1% bovine casein, percent of maximal response to GLP-1(7-36)NH2, arithmetic mean, read-out: hGLP-1R Emax, % ± SEM.
The mark [6] stands for this setting: 37° C., 0.1% bovine casein (no human serum albumin), geometric mean, read-out: hGLP-1R EC50, nM (SEM, n).

We go through four molecules from patent US20230265151A1, “GIP/GLP1 CO-AGONIST COMPOUNDS” (priority 2020, published 2023).

Like-named read-outs stand apart in the source and are kept apart here. Some results are limits rather than exact numbers.

hGLP-1R, sequence (P43220 24-463): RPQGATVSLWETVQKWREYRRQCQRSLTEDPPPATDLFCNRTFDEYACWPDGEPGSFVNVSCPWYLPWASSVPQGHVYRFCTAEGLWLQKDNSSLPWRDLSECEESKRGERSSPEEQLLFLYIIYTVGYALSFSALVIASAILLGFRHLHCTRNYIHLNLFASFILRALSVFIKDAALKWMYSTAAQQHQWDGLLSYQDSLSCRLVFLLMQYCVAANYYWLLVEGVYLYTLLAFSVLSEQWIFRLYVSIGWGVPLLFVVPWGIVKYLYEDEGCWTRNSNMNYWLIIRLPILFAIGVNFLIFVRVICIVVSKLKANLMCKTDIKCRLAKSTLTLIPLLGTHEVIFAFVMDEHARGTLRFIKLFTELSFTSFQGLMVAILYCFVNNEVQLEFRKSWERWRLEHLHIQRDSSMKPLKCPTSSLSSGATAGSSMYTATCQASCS
T2 sequence (P47871 26-477): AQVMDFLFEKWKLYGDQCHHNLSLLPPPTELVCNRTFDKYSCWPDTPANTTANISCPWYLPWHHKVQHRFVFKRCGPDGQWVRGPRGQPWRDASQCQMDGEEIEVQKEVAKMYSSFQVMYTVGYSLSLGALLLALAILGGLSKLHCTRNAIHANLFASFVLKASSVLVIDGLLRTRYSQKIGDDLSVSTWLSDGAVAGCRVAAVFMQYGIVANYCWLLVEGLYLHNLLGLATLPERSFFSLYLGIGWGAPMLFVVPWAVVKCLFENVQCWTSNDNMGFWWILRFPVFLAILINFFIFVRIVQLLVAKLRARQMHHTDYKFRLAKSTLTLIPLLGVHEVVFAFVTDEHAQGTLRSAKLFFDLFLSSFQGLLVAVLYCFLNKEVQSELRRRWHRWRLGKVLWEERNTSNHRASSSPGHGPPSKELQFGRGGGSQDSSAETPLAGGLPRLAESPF

As usually defined, the Emax is the greatest response seen or fitted, relative to the assay's reference. By EC50 is commonly meant the concentration giving half of the maximal effect. Turning to `CCCCCCCCCCCC(=O)N[C@@H](CCC(=O)NCCOCCOCC(=O)NCCOCCOCC(=O)NCCCC[C@H](NC(=O)[C@H](CCCN)NC(=O)[C@H](CC(=O)O)NC(=O)[C@H](CC(C)C)NC(=O)[C@](C)(CC(C)C)NC(=O)[C@@H](NC(=O)[C@H](CO)NC(=O)[C@H](CCc1ccc(O)cc1)NC(=O)[C@H](CC(=O)O)NC(=O)[C@H](CO)NC(=O)[C@@H](NC(=O)[C@](C)(Cc1ccccc1F)NC(=O)[C@@H](NC(=O)CNC(=O)[C@H](CCC(=O)O)NC(=O)C(C)(C)NC(=O)[C@@H](N)Cc1ccc(O)cc1)[C@@H](C)O)[C@@H](C)O)[C@@H](C)CC)C(=O)N[C@@H](C)C(=O)N[C@@H](CCC(N)=O)C(=O)NC(C)(C)C(=O)N[C@@H](CCC(=O)O)C(=O)N[C@@H](Cc1ccccc1)C(=O)N[C@H](C(=O)N[C@H](CCC(=O)O)C(=O)N[C@@](C)(Cc1ccc(O)cc1)C(=O)N[C@@H](CC(C)C)C(=O)N[C@H](C(=O)N[C@@H](CCCCNC(=O)COCCOCCNC(=O)COCCOCCNC(=O)CC[C@H](NC(=O)CCCCCCCCCCC)C(=O)O)C(=O)NCC(=O)NCC(=O)N1CCC[C@H]1C(=O)N[C@@H](CO)C(=O)N[C@@H](CO)C(=O)NCC(=O)N[C@@H](C)C(=O)N1CCC[C@H]1C(=O)N1CCC[C@H]1C(=O)N1CCC[C@H]1C(=O)N[C@@H](CO)C(N)=O)[C@@H](C)CC)[C@@H](C)CC)C(=O)O` [Example 335], the Emax on hGIPR (setting [1]) turned out to be 85.2%; at hGLP-1R (setting [5]) it was 113%. The EC50 is 1.04 nM on hGIPR (setting [2]); greater than 9950 nM at hGCGR (setting [3]); greater than 9950 nM on hGCGR (setting [4]); 0.175 nM on hGLP-1R (setting [6]); 12.3 nM at hGLP-1R (37° C., 0.1% bovine casein and 1.0% human serum albumin, geometric mean (SEM, n), read-out: hGLP-1R EC50, nM (SEM, n)).

For the molecule `CC[C@H](C)[C@H](NC(=O)[C@H](CC(C)C)NC(=O)[C@](C)(Cc1ccc(O)cc1)NC(=O)[C@@H](CCC(=O)O)NC(=O)[C@@H](NC(=O)[C@H](Cc1ccccc1)NC(=O)[C@H](CCC(=O)O)NC(=O)C(C)(C)NC(=O)[C@H](CCC(N)=O)NC(=O)[C@H](C)NC(=O)[C@H](CCCCNC(=O)COCCOCCNC(=O)COCCOCCNC(=O)CCCCCCCCCCCCC(=O)O)NC(=O)[C@H](CCCN)NC(=O)[C@H](CC(=O)O)NC(=O)[C@H](CC(C)C)NC(=O)[C@](C)(CC(C)C)NC(=O)[C@@H](NC(=O)C(C)(C)NC(=O)[C@@H](NC(=O)[C@H](CC(=O)O)NC(=O)[C@H](CO)NC(=O)[C@@H](NC(=O)[C@](C)(Cc1ccccc1F)NC(=O)[C@@H](NC(=O)CNC(=O)[C@H](CCC(=O)O)NC(=O)C(C)(C)NC(=O)[C@@H](N)Cc1ccc(O)cc1)[C@@H](C)O)[C@@H](C)O)C(C)C)[C@@H](C)CC)[C@@H](C)CC)C(=O)N[C@@H](CCCCNC(=O)COCCOCCNC(=O)COCCOCCNC(=O)CCCCCCCCCCCCC(=O)O)C(=O)NCC(=O)NCC(=O)N1CCC[C@H]1C(=O)N[C@@H](CO)C(=O)N[C@@H](CO)C(=O)NCC(=O)N[C@@H](C)C(=O)N1CCC[C@H]1C(=O)N1CCC[C@H]1C(=O)N1CCC[C@H]1C(=O)N[C@@H](CO)C(N)=O` [Example 389], the Emax came out at 82% on hGIPR (setting [1]); 94.6% at hGIPR (HEK293, cAMP, 37° C., 0.1% bovine casein, percent of maximal response to GIP(1-42)NH2, arithmetic mean); 92.4% on hGLP-1R (setting [5]). The EC50 on hGIPR (37° C., 0.1% bovine casein (no human serum albumin), geometric mean, read-out: hGIPR EC50, nM (SEM, n)) was 0.0178 nM; on hGIPR (setting [2]), 1.5 nM; on hGCGR (setting [3]), greater than 9950 nM; on hGCGR (setting [4]), greater than 9950 nM; on hGLP-1R (setting [6]), 0.19 nM.

For `CC[C@H](C)[C@H](NC(=O)[C@H](CC(C)C)NC(=O)[C@](C)(Cc1ccc(O)cc1)NC(=O)[C@@H](CCC(=O)O)NC(=O)[C@@H](NC(=O)[C@H](Cc1ccccc1)NC(=O)[C@H](CCC(=O)O)NC(=O)C(C)(C)NC(=O)[C@H](CCC(N)=O)NC(=O)[C@H](C)NC(=O)[C@H](CCCCNC(=O)COCCOCCNC(=O)COCCOCCNC(=O)CC[C@H](NC(=O)CCCCCCCCCCCCC(=O)O)C(=O)O)NC(=O)[C@H](CCCN)NC(=O)[C@H](CC(=O)O)NC(=O)[C@H](CC(C)C)NC(=O)[C@](C)(CC(C)C)NC(=O)[C@@H](NC(=O)[C@H](CO)NC(=O)[C@H](Cc1cccc2ccccc12)NC(=O)[C@H](CC(=O)O)NC(=O)[C@H](CO)NC(=O)[C@@H](NC(=O)[C@](C)(Cc1ccccc1F)NC(=O)[C@@H](NC(=O)CNC(=O)[C@H](CCC(=O)O)NC(=O)C(C)(C)NC(=O)[C@@H](N)Cc1ccc(O)cc1)[C@@H](C)O)[C@@H](C)O)[C@@H](C)CC)[C@@H](C)CC)C(=O)N[C@@H](CCC(=O)O)C(=O)NCC(=O)NCC(=O)N[C@@H](CCCCNC(=O)COCCOCCNC(=O)COCCOCCNC(=O)CC[C@H](NC(=O)CCCCCCCCCCCCC(=O)O)C(=O)O)C(=O)N[C@@H](CO)C(=O)N[C@@H](CO)C(=O)NCC(=O)N[C@@H](C)C(=O)N1CCC[C@H]1C(=O)N1CCC[C@H]1C(=O)N1CCC[C@H]1C(=O)N[C@@H](CO)C(N)=O` [Example 56], the Emax at hGIPR (HEK293, 0.1% bovine casein and 1.0% human serum albumin, 37° C., percent of maximal response to GIP(1-42)NH2) worked out at 91.4 ± 1.04%; on hGIPR (HEK293, percent of maximal response to GIP(1-42)NH2, 37° C., 0.1% bovine casein, arithmetic mean) it was 90.3 ± 2.57%; at hGLP-1R (HEK293, 0.1% bovine casein and 1.0% human serum albumin, 37° C., percent of maximal response to GLP-1(7-36)NH2, read-out: hGLP-1R Emax, % ± SEM), 123 ± 6.57%. Moreover, the EC50 on hGIPR (incubated at 37° C., 0.1% bovine casein (no human serum albumin), geometric mean, read-out: hGIPR EC50, nM (SEM, n)) is 0.0138 nM; at hGCGR (0.1% bovine casein and 1.0% human serum albumin, 37° C., geometric mean, read-out: hGCGR EC50, nM (SEM, n)), greater than 9950 nM; on hGCGR (cAMP, incubated at 37° C., 0.1% bovine casein (no human serum albumin), geometric mean, read-out: hGCGR EC50, nM (SEM, n)) it was greater than 9950 nM.

As for `CC[C@H](C)[C@H](NC(=O)[C@H](CCCN)NC(=O)[C@H](CC(=O)O)NC(=O)[C@H](CC(C)C)NC(=O)[C@](C)(CC(C)C)NC(=O)[C@@H](NC(=O)[C@H](CO)NC(=O)[C@H](CCCCNC(=O)COCCOCCNC(=O)COCCOCCNC(=O)CC[C@H](NC(=O)CCCCCCCCCCCCC(=O)O)C(=O)O)NC(=O)[C@H](CC(=O)O)NC(=O)[C@H](CO)NC(=O)[C@@H](NC(=O)[C@](C)(Cc1ccccc1F)NC(=O)[C@@H](NC(=O)CNC(=O)[C@H](CCC(=O)O)NC(=O)C(C)(C)NC(=O)[C@@H](N)Cc1ccc(O)cc1)[C@@H](C)O)[C@@H](C)O)[C@@H](C)CC)C(=O)N[C@@H](C)C(=O)N[C@@H](CCC(N)=O)C(=O)NC(C)(C)C(=O)N[C@@H](CCC(=O)O)C(=O)N[C@@](C)(Cc1ccccc1)C(=O)N[C@H](C(=O)N[C@@H](CCCCNC(=O)COCCOCCNC(=O)COCCOCCNC(=O)CC[C@H](NC(=O)CCCCCCCCCCCCC(=O)O)C(=O)O)C(=O)N[C@@](C)(Cc1ccc(O)cc1)C(=O)N[C@@H](CC(C)C)C(=O)N[C@H](C(=O)N[C@@H](CCC(=O)O)C(=O)NCC(=O)NCC(=O)N1CCC[C@H]1C(=O)N[C@@H](CO)C(=O)N[C@@H](CO)C(=O)NCC(=O)N[C@@H](C)C(=O)N1CCC[C@H]1C(=O)N1CCC[C@H]1C(=O)N1CCC[C@H]1C(=O)N[C@@H](CO)C(N)=O)[C@@H](C)CC)[C@@H](C)CC` [Example 110], the EC50 at hGIPR (hGIPR EC50, nM (SEM, n), incubated at 37° C., 0.1% bovine casein (no human serum albumin), geometric mean) was 0.0417 nM; at hGCGR (hGCGR EC50, nM (SEM, n), cAMP, incubated at 37° C., 0.1% bovine casein (no human serum albumin), geometric mean) it was greater than 9950 nM; on hGLP-1R (hGLP-1R EC50, nM (SEM, n), incubated at 37° C., 0.1% bovine casein (no human serum albumin), geometric mean), 1.43 nM. In addition, the Emax on hGLP-1R (HEK293, read-out: hGLP-1R Emax, % ± SEM, percent of maximal response to GLP-1(7-36)NH2, 37° C., 0.1% bovine casein, arithmetic mean) came to 98.8%.
